Source: patent US20220144775A1, “HYDRAZIDE COMPOUND AND KINASE INHIBITOR” (NISSAN CHEMICAL CORPORATION, priority 2019, published 2022)

How the values were obtained:
[1] = test system: mouse partial liver resection model; assay: Liver weight increase in mouse partial liver resection model; format: in vivo; conditions: BALB/c mice; intraperitoneal, 4 times every 24 hr; about 30% of the liver removed; FIG. 2
Experimental: A partial liver resection model in which the mouse liver was partially resected was prepared as described below, and the liver weight increasing effect of the compound of the present invention was evaluated by comparing the liver weight immediately after the resection with the liver weight 3 days after the resection.
A 0.5 w/v % methylcellulose aqueous solution (0.5% MC, manufactured by FUJIFILM Wako Pure Chemical Corporation) and A-007 were evaluated. A-007 was suspended in 0.5% MC, and prepared at a final concentration of 1 mg/mL.
Mice, BALB/cAnNCrlCrlj, 5-week-old, male, were purchased from CHARLES RIVER LABORATORIES JAPAN. In terms of the 0.5% MC administration-control group, 0.5% MC 10 mL/kg was administered intraperitoneally once, and 24 hr later, the entire liver was isolated and the liver weight was measured (n=3). As used herein, the control group means a group without removal of the liver. […]
Immediately after the second administration, the abdomen was opened under isoflurane (manufactured by Intervet Co., Ltd.) anesthesia, and the root of liver lobe was ligated with a suture thread, and about 30% of the liver was finally removed by excising the tip of the ligated liver lobe. After that, the abdomen was closed, and 24 hr after the final administration, the entire liver was removed and the liver weight was measured (n=3). […]

small intestine organoid = assay: Mouse small intestine organoid culture; format: cell-based; conditions: day 9 of culture, 10 μM
Experimental: (§1) 7-Week-old male C57BL/6N mice were purchased from CHARLES RIVER LABORATORIES JAPAN, INC. After the acclimation period, the small intestine and colon were isolated under anesthesia. Crypts were collected from the excised small intestine and colon according to the protocol of IntestiCult (trade mark) Organoid Growth Medium. To be specific, the inside of the intestine was washed with 1 mL of cold PBS, then incised vertically, and washed 3 times with 1 mL of cold PBS. The intestine was transferred to a 10 cm petri dish filled with cold PBS, washed thoroughly again, and transferred to a 50 mL tube containing 15 mL of cold PBS while cutting into 2 mm pieces. […] The number of crypts contained in 10 μL of the suspension was counted under a microscope to determine the concentration, and the mixture was dispensed into a 15 mL tube at 800 crypts/tube, and centrifuged at 4° C., 200 g×5 min. […] Organoids were image-analyzed over time by Cell3iMager duos (SCREEN Holdings Co., Ltd.). For image analysis, the number of crypts having a diameter of 30-200 μm was counted as the number of seeded crypts on the first day of culture, and then those grown to 70 μm or more over time were counted as organoids, and the organoid formation rate from the crypts was calculated. At that time, the average diameter of the organoids measured at the same time was calculated. […]

colon organoid = assay: Mouse colon organoid culture; format: cell-based; conditions: day 21 of culture, 10 μM
Experimental: as §1

**Q.** What does the source list for `CC/C(=N\NC(=O)C(C)Nc1cncc(F)c1)c1ccc(O)c(C)c1O` (centres unmarked) [A-007]?
**A.** changes in the liver weight ratio [1]: has an action of promoting a liver weight increase; formation rate (%) (small intestine organoid; DMSO 39): 70%; average diameter (μm) (small intestine organoid; DMSO 202): 257 μm; formation rate (%) (colon organoid; DMSO 14): 49%; average diameter (μm) (colon organoid; DMSO 207): 251 μm
